Counter-ions that a name gives are not always drawn.
Each molecule was assayed against T1, HCV polymerase (Hepatitis C virus genotype 1b, UniProt P26663) (assay: biochemical).
T1 construct: a region encoding NS5B (J Virol 1991 March, 65(3), 1105-13, 544 amino acids after deletion of 47 amino acids on the C-terminal); 6xHis (C); made in house; host or cells: Escherichia coli
Parameters: species or system HCV BK strain
Outline: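 His-tagged NS5B (BK strain, 47-aa C-terminal deletion, E. coli-expressed) at 0.5 μg/ml copied 5 μg/ml run-off RNA bearing the HCV 3′ UTR with 2 μM UTP plus [3H]UTP, 50 μM ATP/GTP, in pH 7.5 Tris with 5 mM MgCl2, 25 °C, 90 min. TCA-precipitated RNA was counted and IC50 calculated.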

T1 sequence (P26663 2420-2963): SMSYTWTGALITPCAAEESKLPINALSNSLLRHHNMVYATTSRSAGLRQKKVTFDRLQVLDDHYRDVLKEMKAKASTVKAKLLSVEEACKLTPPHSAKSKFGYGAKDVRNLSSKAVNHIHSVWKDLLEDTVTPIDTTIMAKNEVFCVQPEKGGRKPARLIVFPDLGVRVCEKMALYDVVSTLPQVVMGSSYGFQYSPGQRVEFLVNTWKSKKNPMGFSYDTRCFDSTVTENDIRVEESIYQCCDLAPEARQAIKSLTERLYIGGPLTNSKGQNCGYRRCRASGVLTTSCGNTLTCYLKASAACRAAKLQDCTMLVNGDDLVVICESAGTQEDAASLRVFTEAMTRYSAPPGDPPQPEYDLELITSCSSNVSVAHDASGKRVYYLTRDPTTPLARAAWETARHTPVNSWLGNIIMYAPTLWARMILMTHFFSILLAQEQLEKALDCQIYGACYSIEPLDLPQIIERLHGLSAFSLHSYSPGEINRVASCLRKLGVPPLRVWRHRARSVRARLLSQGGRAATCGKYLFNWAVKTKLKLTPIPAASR

Structure (SMILES)	IC50 [nM]
COc1ccc2c(c1)OCCn1c-2c(C2CCCCC2)c2ccc(C(=O)NC3(c4nc5cc(OCC(=O)O)ccc5[nH]4)CCC3)cc21 [Example 2-455, (2-{1-[(12-cyclohexyl-3-methoxy-6,7-dihydro-5-oxa-7a-azadibenzo[a,e]azulene-9-carbonyl)amino]cyclobutyl}-1H-benzimidazol-5-yloxy)acetic acid]	< 100
O=C(O)c1ccc2c(C3CCCCC3)c3n(c2c1)CCOc1c-3cccc1N(CCN1CCCCC1)CCN1CCCCC1 [Example 2-278, 4-{bis[2-(piperidin-1-yl)ethyl]amino}-12-cyclohexyl-6,7-dihydro-5-oxa-7a-azadibenzo[a,e]azulene-9-carboxylic acid dihydrochloride]	< 100
Cc1nc(C(C)(C)NC(=O)c2ccc3c(C4CCCCC4)c4n(c3c2)CCOc2ccccc2-4)n(CC(=O)N(C)C)c1C [Example 2-293, N-[1-(1-dimethylcarbamoylmethyl-4,5-dimethyl-1H-imidazol-2-yl)-1-methylethyl]-12-cyclohexyl-6,7-dihydro-5-oxa-7a-azadibenzo[a,e]azulene-9-carboxamide]	100 to 1000
CC(C)(NC(=O)c1ccc2c(C3CCCCC3)c3n(c2c1)CCOc1ccccc1-3)c1ccc(CO)cc1 [Example 2-171, N-[1-(4-hydroxymethylphenyl)-1-methylethyl]-12-cyclohexyl-6,7-dihydro-5-oxa-7a-azadibenzo[a,e]azulene-9-carboxamide]	< 100
COC1CCN(C(=O)CN2CCn3c(c(C4CCCCC4)c4ccc(C(=O)O)cc43)-c3ccc(C)cc32)CC1 [Example 1-572, 13-cyclohexyl-5-[2-(4-methoxypiperidin-1-yl)-2-oxoethyl]-3-methyl-6,7-dihydro-5H-benzo[5,6][1,4]diazepino[7,1-a]indole-10-carboxylic acid]	< 100
COc1ccc2c(c1)OCCn1c-2c(C2CCCCC2)c2ccc(C(=O)NC3(C(=O)Nc4ccc(/C=C/C(=O)O)cc4)CCC3)nc21 [Example 7-10, (E)-3-[4-({1-[(12-cyclohexyl-3-methoxy-6,7-dihydro-5-oxa-7a,8-diazadibenzo[a,e]azulene-9-carbonyl)amino]cyclobutanecarbonyl}amino)phenyl]acrylic acid]	< 100
COc1ccc2c(c1)OCCn1c-2c(C2CCCCC2)c2ccc(C(=O)NC(C)(C)c3nc4ccccc4n3CCN3CCOCC3)cc21 [Example 2-432, N-(1-methyl-1-{1-[2-(morpholin-4-yl)ethyl]-1H-benzimidazol-2-yl}ethyl)-12-cyclohexyl-3-methoxy-6,7-dihydro-5-oxa-7a-azadibenzo[a,e]azulene-9-carboxamide]	< 100
O=C(O)c1ccc2c(C3CCCCC3)c3n(c2c1)CCN(CC(=O)N1CCSCC1)c1ccccc1-3 [Example 1-7, 13-cyclohexyl-5-[2-oxo-2-(thiomorpholin-4-yl)ethyl]-6,7-dihydro-5H-benzo[5,6][1,4]diazepino[7,1-a]indole-10-carboxylic acid monohydrochloride]	< 100
COC(=O)c1[nH]c(C(C)(C)NC(=O)c2ccc3c(C4CCCCC4)c4n(c3c2)CCOc2ccccc2-4)nc1C [Example 2-209, methyl 2-{1-[(12-cyclohexyl-6,7-dihydro-5-oxa-7a-azadibenzo[a,e]azulene-9-carbonyl)amino]-1-methylethyl]-5-methyl-3H-imidazole-4-carboxylate]	< 100
CCN(CCN1CCCOCC1)c1cccc2c1OCCn1c-2c(C2CCCCC2)c2ccc(C(=O)O)cc21 [Example 2-168, 12-cyclohexyl-4-{N-ethyl-N-[2-(1,4-oxazepan-4-yl)ethyl]amino}-6,7-dihydro-5-oxa-7a-azadibenzo[a,e]azulene-9-carboxylic acid dihydrochloride]	< 100
CN1CCN(C(=O)C(C)(C)NC(=O)c2ccc3c(C4CCCCC4)c4n(c3c2)CCOc2ccccc2-4)CC1 [Example 2-290, N-[1,1-dimethyl-2-(4-methylpiperazin-1-yl)-2-oxoethyl]-12-cyclohexyl-6,7-dihydro-5-oxa-7a-azadibenzo[a,e]azulene-9-carboxamide]	100 to 1000
Cc1ccc2c(c1)N(CCN1CCSCC1)CCn1c-2c(C2CCCCC2)c2ccc(C(=O)O)cc21 [Example 1-561, 13-cyclohexyl-3-methyl-5-[2-(thiomorpholin-4-yl)ethyl]-6,7-dihydro-5H-benzo[5,6][1,4]diazepino[7,1-a]indole-10-carboxylic acid dihydrochloride]	< 100
CN(C)CCN1CCn2c(c(C3CCCCC3)c3ccc(C(=O)O)cc32)-c2ccc(Oc3ccccc3)cc21 [Example 1-311, 13-cyclohexyl-5-(2-dimethylaminoethyl)-3-phenoxy-6,7-dihydro-5H-benzo[5,6][1,4]diazepino[7,1-a]indole-10-carboxylic acid dihydrochloride]	< 100
CC1(C)CCN(CCN2CCn3c(c(C4CCCCC4)c4ccc(C(=O)O)cc43)-c3ccccc32)CC1 [Example 1-199, 13-cyclohexyl-5-[2-(4,4-dimethylpiperidin-1-yl)ethyl]-6,7-dihydro-5H-benzo[5,6][1,4]diazepino[7,1-a]indole-10-carboxylic acid dihydrochloride]	< 100
O=C(O)c1ccc2c(C3CCCCC3)c3n(c2c1)CCN(CCC1CCCCN1)c1ccccc1-3 (stereo not drawn) [Example 1-177, 13-cyclohexyl-5-[2-(piperidin-2-yl)ethyl]-6,7-dihydro-5H-benzo[5,6][1,4]diazepino[7,1-a]indole-10-carboxylic acid dihydrochloride]	< 100
COc1ccc2c(c1)OCCn1c-2c(C2CCCCC2)c2ccc(C(=O)O)cc21 [Example 2-4, 12-cyclohexyl-3-methoxy-6,7-dihydro-5-oxa-7a-azadibenzo[a,e]azulene-9-carboxylic acid]	< 100
O=C(O)c1ccc2c(C3CCCCC3)c3n(c2c1)CCN(CC(=O)N1CCOCC1)c1ccccc1-3 [Example 1-26, 13-cyclohexyl-5-[2-(morpholin-4-yl)-2-oxoethyl]-6,7-dihydro-5H-benzo[5,6][1,4]diazepino[7,1-a]indole-10-carboxylic acid]	< 100
O=C(O)c1ccc2nc(NC(=O)c3ccc4c(C5CCCCC5)c5n(c4c3)CCOc3ccccc3-5)[nH]c2c1 [Example 2-268, 2-[(12-cyclohexyl-6,7-dihydro-5-oxa-7a-azadibenzo[a,e]azulene-9-carbonyl)amino]-3H-benzimidazole-5-carboxylic acid]	100 to 1000
CCN1CCN(C(=O)CN2CCn3c(c(C4CCCCC4)c4ccc(C(=O)NC(C)(C)CO)cc43)-c3ccccc32)CC1 [Example 1-86, 13-cyclohexyl-5-[2-(4-ethylpiperazin-1-yl)-2-oxoethyl]-N-(2-hydroxy-1,1-dimethylethyl)-6,7-dihydro-5H-benzo[5,6][1,4]diazepino[7,1-a]indole-10-carboxamide]	100 to 1000
COc1ccc2c(c1)OCCn1c-2c(C2CCCCC2)c2ccc(C(=O)N[C@@H](Cc3ccc(O)cc3)C(=O)N3CCC(OC)CC3)cc21 [Example 2-297, N—[(S)-1-(4-hydroxybenzyl)-2-(4-methoxypiperidin-1-yl)-2-oxoethyl]-12-cyclohexyl-3-methoxy-6,7-dihydro-5-oxa-7a-azadibenzo[a,e]azulene-9-carboxamide]	< 100
COc1ccc2c(c1)OCCn1c-2c(C2CCCCC2)c2ccc(C(=O)NC(C)(C)c3nc4cc(C(=O)O)ccc4n3CCN3CCOCC3)cc21 [Example 2-395, 2-{1-[(12-cyclohexyl-3-methoxy-6,7-dihydro-5-oxa-7a-azadibenzo[a,e]azulene-9-carbonyl)amino]-1-methylethyl]-1-[2-(morpholin-4-yl)ethyl]-1H-benzimidazole-5-carboxylic acid]	< 100
CC(C)N1CCC(OCCN2CCn3c(c(C4CCCCC4)c4ccc(C(=O)O)cc43)-c3ccc(Cl)cc32)CC1 [Example 1-318, 3-chloro-13-cyclohexyl-5-[2-(1-isopropylpiperidin-4-yloxy)ethyl]-6,7-dihydro-5H-benzo[5,6][1,4]diazepino[7,1-a]indole-10-carboxylic acid dihydrochloride]	< 100
O=C(O)c1ccc2c(C3CCCCC3)c3n(c2c1)CCOc1c-3cccc1[N+](=O)[O-] [Example 2-477, 12-cyclohexyl-4-nitro-6,7-dihydro-5-oxa-7a-azadibenzo[a,e]azulene-9-carboxylic acid]	< 100
CCc1ccc2c(c1)N(CCN1CCCC(C)C1)CCn1c-2c(C2CCCCC2)c2ccc(C(=O)O)cc21 (stereo not drawn) [Example 1-339, 13-cyclohexyl-3-ethyl-5-[2-(3-methylpiperidin-1-yl)ethyl]-6,7-dihydro-5H-benzo[5,6][1,4]diazepino[7,1-a]indole-10-carboxylic acid dihydrochloride]	< 100
CN(C)CCN1CCn2c(c(C3CCCCC3)c3ccc(C(=O)O)cc32)-c2ccc(OCc3cccc(N)c3)cc21 [Example 1-578, 3-(3-aminobenzyloxy)-13-cyclohexyl-5-(2-dimethylaminoethyl)-6,7-dihydro-5H-benzo[5,6][1,4]diazepino[7,1-a]indole-10-carboxylic acid trihydrochloride]	< 100
COc1ccc2c(c1)OCCn1c-2c(C2CCCCC2)c2ccc(C(=O)N[C@@H](Cc3ccc(O)cc3)C(=O)N(C)C)cc21 [Example 2-262, N—[(S)-1-dimethylcarbamoyl-2-(4-hydroxyphenyl)ethyl]-12-cyclohexyl-3-methoxy-6,7-dihydro-5-oxa-7a-azadibenzo[a,e]azulene-9-carboxamide]	< 100
CN(C)C1CCN(C(=O)CN2CCn3c(c(C4CCCCC4)c4ccc(C(=O)O)cc43)-c3ccccc32)CC1 [Example 1-43, 13-cyclohexyl-5-[2-(4-dimethylaminopiperidin-1-yl)-2-oxoethyl]-6,7-dihydro-5H-benzo[5,6][1,4]diazepino[7,1-a]indole-10-carboxylic acid dihydrochloride]	< 100
